Values of other authors as cited in US20070197568A1 (priority 2005, published 2007).

Conditions: animals, at doses that inhibit tumor growth

## O=C(CCCCCCC(=O)Nc1ccccc1)NO [SAHA, N-Hydroxy-N′-phenyl octanediamide]
  toxicity to the animal: no toxicity
